Results as given in US8188268B2, “Porous crystalline saccharide, its preparation and uses” (Kabushiki Kaisha Hayashibara Seibutsu Kagaku Kenkyujo, priority 2005, dated 2012).
“And” between values parts separate entries of the source, which are not always exact repeats. Equal entries are not always repeated. Where two headings read alike, the source gives them in different places.

How the values were obtained:
[1] = Oil-keeping ability with salad oil; assay type: physicochemical; design: key to Oil-keeping ability: (5 g salad oil / g saccharide added at endpoint) x 100; details: for Oil-keeping ability: (5 g salad oil / amount of added saccharide) x 100
Experimental: The oil-keeping ability of each crystalline saccharide was measured using the porous anhydrous crystalline trehalose prepared by treating at 70° C. for 60 min in Example 1, the control hydrous crystalline trehalose, and the control anhydrous crystalline trehalose as crystalline trehalose samples; and the porous anhydrous crystalline maltose prepared by the method in Example 3, the control hydrous crystalline β-maltose, and the control anhydrous crystalline α-maltose, and the control anhydrous crystalline β-maltose as crystalline maltose samples, and the results were compared.
The measurement of the oil-keeping ability of the crystalline saccharide was carried out according to the method disclosed in Japanese Patent Kokai No. 31,650/84. Five grams of “NISSHIN SALAD OIL”, a salad oil commercialized by Nisshin OiliO Group, Ltd., Tokyo, Japan, was placed in a 50-ml plastic container, and then gradually admixed with each powdery crystalline saccharide with stirring. […] When the amount of the mixed saccharide is further increased, the agglomerate increase in solidity and then loosen. The point that the agglomerate is loosened is estimated to be the endpoint and the oil-keeping ability was calculated using the following formula. Oil-Keeping Ability =(The amount of salad oil(5 g)/the amount of added PCS*)×100 *: Powdery crystalline saccharide tm Formula 1

[2] = Crystal moisture content (Karl Fischer) on moisture absorption and drying; assay type: physicochemical
Experimental: Hydrous crystalline saccharides were prepared from the respective porous anhydrous crystalline saccharide using the porous anhydrous crystalline trehalose, obtained by treating at 70° C. for 60 min in Example 1, and the porous anhydrous crystalline maltose, obtained by treating at 70° C. for 480 min in Example 3, as materials. About 50 g of the porous anhydrous crystalline saccharide and about 150 ml of deionized water were placed in respective container. Then, the both open containers were placed in the same closed vessel and leaved to stand at 27° C. for two days. By the treatment, the anhydrous crystalline saccharide was allowed to absorb moisture and converted into hydrous crystal. The resulting hydrous crystal was dried in a drying machine at 50° C. for one hour to remove excess moisture. The moisture contents of the porous anhydrous crystalline trehalose and the porous anhydrous crystalline maltose before and after the treatment to absorb moisture and after drying are in Table 6. The moisture content of crystals was measured by the conventional Karl Fischer's method.

[3] = Specific surface area by nitrogen adsorption isotherms (BET); assay type: physicochemical; details: for Specific surface area: nitrogen adsorption isotherms, BET
Experimental: Specific surface area of the porous anhydrous crystalline trehalose was measured by the nitrogen adsorption isotherms using “MODEL ASAP-2400”, a specific surface area/pore size distribution analyzer commercialized by Micromeritics, Georgia, USA. […] The result was analyzed by the BET (Brunnauer, Emmet, and Teller) method. The commercial anhydrous crystalline trehalose, a reagent grade, commercialized by Hayashibara Biochemical Laboratories Inc., Okayama, Japan, was used as a control. […] Further, those pore size distribution charts are in FIG. 19. […] The results of the analysis on the specific surface area and the pore size distribution are summarized in Table 7, and the pore size distribution chart was in FIG. 24. As a control, “MALTOSE OM”, a hydrous crystalline maltose product with maltose purity of 98% or higher, produced by Hayashibara Co., Ltd., Okayama, Japan, was used.

[4] = Pore size distribution by the mercury filling method; assay type: physicochemical; details: for Median pore diameter: control maltose values are from space between particles, not pores
[5] = Flax seed oil powder: keeping of powdery form; assay type: physicochemical; details: 1 part flax seed oil + 10 parts saccharide as base
Experimental: One part by weight of flax seed oil was admixed with 10 parts by weight of the porous anhydrous crystalline trehalose, prepared by treating at 70° C. for 60 min in Example 1, and then the mixture was kneaded to make into a powdery product. In the same manner, powdery products were prepared by using “TREHA®”, hydrous crystalline trehalose commercialized by Hayashibara Shoji Inc., Okayama, Japan, and anhydrous crystalline trehalose, prepared from hydrous crystalline trehalose by drying in vacuo at a high temperature according to the conventional method, as controls. […] The flaxseed oil powder can be preferably used as a supplement.

[6] = Preservation test of flax seed oil powder, volatile aldehydes by GC; assay type: physicochemical; details: flax seed oil powder with this base
Experimental: As disclosed in Japanese Patent Kokai No. 123,195/2001 applied for by the same applicant of the present invention, it has been known that trehalose inhibits the decomposition of fatty acids and the formation of volatile aldehydes. Therefore, a preservation test of the flax seed oil powders were carried out according to the following method by using the flax seed oil powders prepared in Example 9 by using the porous anhydrous crystalline trehalose of the present invention or the control anhydrous crystalline trehalose as powderizing bases, and the amounts of the formed volatile aldehydes were compared.
One gram each of the flax seed oil powder was put into two 20 ml-vial, sealed with Butyl-rubber stopper, and then preserved in an incubator at 40° C. for three weeks. The vial was collected at the point of before the preservation or after preserving for 21 days and heated at 80° C. for 5 min. Then, 2 ml of vapor phase gas in the vial was directly subjected to gas chromatography (GC) analysis to determine the amount of volatile aldehydes. GC analysis was carried out according to the following conditions.
• Gas chromatograph: GC-17B, produced by Shimadzu Corporation, Kyoto, Japan; • Column: TC-FFAP capillary column (ID 0.52 mm×30 m), produced by GL Sciences Inc., Tokyo, Japan; • Column temperature: 40° C. to 100° C.

[7] = Dissolution test against cold water at 10° C.; assay type: physicochemical; details: for Time required for dissolution, No. 1 / Time required for dissolution, No. 2 / Time required for dissolution, No. 3 / Time required for dissolution, No. 4 / Time required for dissolution, No. 5 / Time required for dissolution, Average: 20 ml water 10° C., about 300 rpm, 0.5 g trehalose or 0.2 g maltose; for Time required for dissolution, Average: average of 5
Experimental: A dissolution test against cold water at 10° C. was carried out using the porous anhydrous crystalline trehalose prepared by treating at 70° C. for 60 min in Example 1, the porous anhydrous crystalline maltose prepared by the method in Example 3, and the porous hydrous crystalline maltose prepared by the method in Example 5, as samples. The results were compared with those of the controls, anhydrous crystalline trehalose, hydrous crystalline trehalose, and hydrous crystalline maltose.
Twenty milliliters of 10° C.-cold water was placed in a test tube with an internal diameter of 18 mm, and then stirred using a stirring bar. A crystalline saccharide sample was put into the test tube, and the time required for the complete dissolution (for the disappearance of precipitate particles) was measured. The amount of samples was set to be 0.5 g in the case of trehalose and to be 0.2 g in the case of maltose, and the stirring rate was set to be about 300 rpm in any case. The measurement of time for dissolution under the above conditions was carried out 5-times at each sample.

[8] = background art; cited from earlier work
[9] = listed as Porous anhydrous crystalline trehalose (Present invention)
[10] = 21 days after preservation at 40° C.
[11] = 21 days after preservation at 40° C., listed as Porous anhydrous crystalline trehalose (Present invention)
[12] = before preservation, listed as Porous anhydrous crystalline trehalose (Present invention)
[13] = listed as control anhydrous crystalline trehalose

OC[C@H]1O[C@H](O[C@H]2O[C@H](CO)[C@@H](O)[C@H](O)[C@H]2O)[C@H](O)[C@@H](O)[C@@H]1O [Porous anhydrous crystalline trehalose (treated at 70° C. fo] [α-D-glucosyl α-D-glucoside]
Oil-keeping ability [1]: 62.5
Oil-keeping ability [1, 9]: 62.5
Oil-keeping ability relative to control ([1]; compared with control crystalline saccharide): about 1.6 folds
Crystal moisture content, after drying ([2]; after moisture absorption and drying at 50° C. for one hour): 9.66 %, w/w
Crystal moisture content, before treatment ([2]; before moisture absorption): 0.24 %, w/w
Crystal moisture content, after treatment ([2]; closed vessel with water, 27° C., two days): 10.32 %, w/w
Specific surface area relative to control crystalline saccharide ([3]; compared with control(s)): ≥ 5 folds
Specific surface area [3]: 2.513 m^2/g
Intrusion volume [4]: 0.28 mL/g
Mode pore diameter [4]: 0.20 μm
Pore diameter of clear peak in pore size distribution chart [4]: less than 5 μm
Remarks (pores) [4]: Having clear pores
Median pore diameter [4]: 0.29 μm
Intrusion volume ([4]; listed as porous anhydrous crystalline trehalose): 0.22 mL/g and 0.28 mL/g
Powdery form of flax seed oil powder [5]: kept good powdery form
2-Heptenal [6, 10]: 0.01 μg/ml-vapor phase gas
2,4-Decadienal [6, 11]: 4.01 μg/ml-vapor phase gas
2-Hexenal [6, 11]: 0.01 μg/ml-vapor phase gas
2-Nonenal [6, 11]: 0.19 μg/ml-vapor phase gas
2-Octenal [6, 11]: 0.43 μg/ml-vapor phase gas
Acetoaldehyde [6, 11]: 3.77 μg/ml-vapor phase gas
Butanal [6, 11]: 0.63 μg/ml-vapor phase gas
Hexanal [6, 11]: 0.11 μg/ml-vapor phase gas
Pentanal [6, 11]: 0.33 μg/ml-vapor phase gas
Propanal [6, 11]: 8.66 μg/ml-vapor phase gas
Total aldehydes [6, 11]: 18.15 μg/ml-vapor phase gas
2-Heptenal ([6]; before preservation): 0.00 μg/ml-vapor phase gas
2-Hexenal ([6]; before preservation): 0.00 μg/ml-vapor phase gas
2,4-Decadienal [6, 12]: 3.66 μg/ml-vapor phase gas
2-Nonenal [6, 12]: 0.00 μg/ml-vapor phase gas
2-Octenal [6, 12]: 0.11 μg/ml-vapor phase gas
Acetoaldehyde [6, 12]: 4.13 μg/ml-vapor phase gas
Butanal [6, 12]: 0.43 μg/ml-vapor phase gas
Hexanal [6, 12]: 0.00 μg/ml-vapor phase gas
Pentanal [6, 12]: 0.09 μg/ml-vapor phase gas
Propanal [6, 12]: 5.77 μg/ml-vapor phase gas
Total aldehydes [6, 12]: 14.19 μg/ml-vapor phase gas
Time required for dissolution, No. 1 [7, 9]: 29 s
Time required for dissolution, No. 2 [7, 9]: 34 s
Time required for dissolution, No. 3 [7, 9]: 40 s
Time required for dissolution, No. 4 [7, 9]: 29 s
Time required for dissolution, No. 5 [7, 9]: 31 s
Time required for dissolution, Average [7, 9]: 33 s
Dissolution in cold water in comparison with controls ([7]; cold water 10° C.): rapidly dissolved in cold water

OC[C@H]1O[C@H](O[C@H]2O[C@H](CO)[C@@H](O)[C@H](O)[C@H]2O)[C@H](O)[C@@H](O)[C@@H]1O [Anhydrous crystalline trehalose (Control)] [α-D-glucosyl α-D-glucoside, reference compound]
Oil-keeping ability [1]: 38.5
Oil-keeping ability [1, 13]: 38.5
Specific surface area ([3]; listed as Anhydrous crystalline trehalose (Conventional product, Control)): 0.465 m^2/g
Intrusion volume [4]: 0.03 mL/g
Mode pore diameter [4]: 0.46 μm
Median pore diameter [4]: 0.40 μm
Intrusion volume [4, 13]: 0.03 mL/g
Powdery form of flax seed oil powder [5, 13]: could not keep powdery forms
2,4-Decadienal [6, 10]: 7.01 μg/ml-vapor phase gas
2-Heptenal [6, 10]: 0.01 μg/ml-vapor phase gas
2-Hexenal [6, 10]: 0.02 μg/ml-vapor phase gas
2-Nonenal [6, 10]: 0.27 μg/ml-vapor phase gas
2-Octenal [6, 10]: 0.66 μg/ml-vapor phase gas
Acetoaldehyde [6, 10]: 8.99 μg/ml-vapor phase gas
Butanal [6, 10]: 0.93 μg/ml-vapor phase gas
Hexanal [6, 10]: 0.16 μg/ml-vapor phase gas
Pentanal [6, 10]: 0.55 μg/ml-vapor phase gas
Propanal [6, 10]: 12.98 μg/ml-vapor phase gas
Total aldehydes [6, 10]: 31.58 μg/ml-vapor phase gas
2,4-Decadienal ([6]; before preservation): 6.77 μg/ml-vapor phase gas
2-Heptenal ([6]; before preservation): 0.00 μg/ml-vapor phase gas
2-Hexenal ([6]; before preservation): 0.00 μg/ml-vapor phase gas
2-Nonenal ([6]; before preservation): 0.01 μg/ml-vapor phase gas
2-Octenal ([6]; before preservation): 0.23 μg/ml-vapor phase gas
Acetoaldehyde ([6]; before preservation): 8.91 μg/ml-vapor phase gas
Butanal ([6]; before preservation): 0.66 μg/ml-vapor phase gas
Hexanal ([6]; before preservation): 0.07 μg/ml-vapor phase gas
Pentanal ([6]; before preservation): 0.13 μg/ml-vapor phase gas
Propanal ([6]; before preservation): 10.24 μg/ml-vapor phase gas
Total aldehydes ([6]; before preservation): 27.02 μg/ml-vapor phase gas
Time required for dissolution, No. 1 [7]: 90 s
Time required for dissolution, No. 2 [7]: 87 s
Time required for dissolution, No. 3 [7]: 96 s
Time required for dissolution, No. 4 [7]: 91 s
Time required for dissolution, No. 5 [7]: 86 s
Time required for dissolution, Average [7]: 90 s

OC[C@H]1O[C@@](CO)(O[C@H]2O[C@H](CO)[C@@H](O)[C@H](O)[C@H]2O)[C@@H](O)[C@@H]1O [granulated sugar, sucrose]
Specific surface area [8]: about 0.1 m^2/g
